Among the data in patent publication US8691846B2, “Piperidine sulphonamide derivatives” (Hoffmann-La Roche, Inc., priority 2008, dated 2014) are Kb values, retold here.

The term Kb denotes the affinity of an antagonist, worked out from how it opposes an agonist.

The target in the first experiment is T1, human orexin-2 (hOX2) receptors (Homo sapiens, UniProt O43614).
T1 construct: expressed in transfected cells
T1 sequence (O43614 1-444): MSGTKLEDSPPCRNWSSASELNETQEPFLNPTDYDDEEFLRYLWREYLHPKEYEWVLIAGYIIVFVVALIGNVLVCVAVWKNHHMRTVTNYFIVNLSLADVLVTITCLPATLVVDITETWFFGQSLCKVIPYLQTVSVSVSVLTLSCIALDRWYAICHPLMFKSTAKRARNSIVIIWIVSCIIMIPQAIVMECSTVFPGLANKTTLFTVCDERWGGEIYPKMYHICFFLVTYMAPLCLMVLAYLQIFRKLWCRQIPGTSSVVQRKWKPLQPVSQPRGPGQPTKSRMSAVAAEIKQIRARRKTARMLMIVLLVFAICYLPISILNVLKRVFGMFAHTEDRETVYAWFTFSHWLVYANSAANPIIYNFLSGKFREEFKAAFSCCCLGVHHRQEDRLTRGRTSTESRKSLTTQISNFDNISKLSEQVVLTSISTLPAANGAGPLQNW
As to the kind of experiment: Intracellular Ca2+ mobilization assay (FLIPR), antagonism of orexin-A in CHO(dHFr-) cells expressing hOX2. Type of experiment: cell-based. The note with it: CHO(dHFr-)-OX2R cells; orexin-A at EC80 as agonist; Kb=IC50/(1+[A]/EC50); read-out: Kb (μM) OX2R (human). The protocol: Intracellular Ca^2+ Mobilization Assay
The Chinese Hamster Ovary (dHFr−) mutant cell line stably expressing human orexin-1 (hOX1) or human orexin-2 (hOX2) receptors were maintained in Dulbecco's Modified Eagle Medium (1×) with GlutaMax™ 1, 4500 mg/L D-Glucose and Sodium Pyruvate (Catalog No. 31966-021, Invitrogen, Carlsbad, Calif.), 5% dialyzed fetal calf serum (Catalog No. 26400-044), 100 μg/ml penicillin and 100 μg/ml streptomycin. The cells were seeded at 5×10^4 cells/well in the poly-D-lysine treated, 96-well, black/clear-bottomed plates (Catalog No. BD356640, BD Biosciences, Palo Alto, Calif.). 24 h later, the cells were loaded for 1 h at 37° C. with 4 μM Flou-4 acetoxymethyl ester (Catalog No. F-14202, Molecular Probes, Eugene, Oreg.) in FLIPR buffer (1×HBSS, 20 mM HEPES, 2.5 mM Probenecid). Hanks' Balanced Salt Solution (HBSS) (10×) (catalog No. 14065-049) and HEPES (1M) (catalog No. 15630-056) were purchased from Invitrogen, Carlsbad, Calif. Probenecid (250 mM) (catalog No. P8761) was from Sigma, Buchs, Switzerland. The cells were washed five times with FLIPR buffer to remove excess dye and intracellular calcium mobilization, [Ca^2′]I were measured using a Fluorometric Imaging Plate Reader (FLIPR-96, Molecular Devices, Menlo Park, Calif.) as described previously (Malherbe et al., Mol. Pharmacol., 64, 823-832, 2003). Orexin A (catalog No. 1455, Toris Cookson Ltd, Bristol, UK) was used as agonist. Orexin A (50 mM stock solution in DMSO) was diluted in FLIPR buffer+0.1% BSA. The EC50 and EC80 values of orexin-A were measured daily from standard agonist concentration-response curves in CHO(dHFr−)-OX1R and -OX2R cell lines. All compounds were dissolved in 100% DMSO Inhibition curves were determined by addition of 11 concentrations (0.0001-10 μM) of inhibitory compounds and using EC80 value of orexin-A as agonist (a concentration which gave 80% of max agonist response, determined daily). The antagonists were applied 25 min (incubation at 37° C.) before the application of the agonist. Responses were measured as peak increase in fluorescence minus basal, normalized to the maximal stimulatory effect induced by EC80 value of orexin-A or orexin-B Inhibition curves were fitted according to the Hill equation: y=100/(1+(x/IC50)^nH), where nH=slope factor using Excel-fit 4 software (Microsoft).
Kb values were calculated according to the following equation Kb=IC50/(1+[A]/EC50) where A is the concentration of agonist added which is very close to agonist EC80 value, and IC50 and EC50 values were derived from the antagonist inhibition and orexin-A or B agonist curves, respectively.
Regarding `O=C(C1CCCN(S(=O)(=O)c2ccccc2Cl)C1)N1CCCC1c1ccc(F)cc1` (centres unmarked) [Example 3, [1-(2-Chloro-benzenesulfonyl)-piperidin-3-yl]-[2-(4-fluoro-phenyl)-pyrrolidin-1-yl]-methanone], the Kb came out at 0.0788 µM.

Turning to `O=C(C1CCCN(S(=O)(=O)c2ccccc2Cl)C1)N1CCCC1c1ccccc1` (centres unmarked) [Example 7, [1-(2-Chloro-benzenesulfonyl)-piperidin-3-yl]-(2-phenyl-pyrrolidin-1-yl)-methanone], the Kb came out at 0.02 µM.

For `O=C(C1CCCN(S(=O)(=O)c2cccc(Cl)c2)C1)N1CCCC1c1ccccc1` (centres unmarked) [Example 8, [1-(3-Chloro-benzenesulfonyl)-piperidin-3-yl]-(2-phenyl-pyrrolidin-1-yl)-methanone], the Kb is 0.0219 µM.

As to `COc1ccccc1S(=O)(=O)N1CCCC(C(=O)N2CCCCC2c2ccccc2)C1` (centres unmarked) [Example 10, [1-(2-Methoxy-benzenesulfonyl)-piperidin-3-yl]-(2-phenyl-piperidin-1-yl)-methanone], the Kb amounted to 0.0226 µM.

As to `COc1ccccc1S(=O)(=O)N1CCCC(C(=O)N2CCCC2c2ccccc2)C1` (centres unmarked) [Example 11, [1-(2-Methoxy-benzenesulfonyl)-piperidin-3-yl]-(2-phenyl-pyrrolidin-1-yl)-methanone], the Kb amounted to 0.0053 µM.

Regarding `COc1ccc(Cl)cc1S(=O)(=O)N1CCCC(C(=O)N2CCCC2c2ccccc2)C1` (centres unmarked) [Example 14, [1-(5-Chloro-2-methoxy-benzenesulfonyl)-piperidin-3-yl]-(2-phenyl-pyrrolidin-1-yl)-methanone], the Kb was determined as 0.0138 µM.

On to `COc1ccc(Cl)cc1S(=O)(=O)N1CCCC(C(=O)N2CCCCC2c2ccccc2)C1` (centres unmarked) [Example 16, [1-(5-Chloro-2-methoxy-benzenesulfonyl)-piperidin-3-yl]-(2-phenyl-piperidin-1-yl)-methanone], for which the Kb turned out to be 0.0592 µM.

For `O=C(C1CCCN(S(=O)(=O)c2ccccc2Cl)C1)N1CCCC1c1ccccc1Cl` (centres unmarked) [Example 17, [1-(2-Chloro-benzenesulfonyl)-piperidin-3-yl]-[2-(2-chloro-phenyl)-pyrrolidin-1-yl]-methanone], the Kb was found to be 0.0113 µM.

Staying with this experiment, now noted: Table 1; CHO(dHFr-)-OX2R cells; orexin-A at EC80 as agonist; Kb=IC50/(1+[A]/EC50); read-out: Kb hOx2.
`O=C(C1CCCN(S(=O)(=O)c2ccccc2Cl)C1)N1CCCCC1c1ccccc1` (centres unmarked) [Example 4, [1-(2-Chloro-benzenesulfonyl)-piperidin-3-yl]-(2-phenyl-piperidin-1-yl)-methanone]: the Kb amounted to 0.118 µM.

Consider `O=C(C1CCCN(S(=O)(=O)c2cccc(Cl)c2)C1)N1CCCCC1c1ccccc1` (centres unmarked) [Example 5, [1-(3-Chloro-benzenesulfonyl)-piperidin-3-yl]-(2-phenyl-piperidin-1-yl)-methanone], for which the antagonist equilibrium constant (Kb) came out at 0.55 µM.

`O=C(C1CCCN(S(=O)(=O)c2ccc(F)cc2)C1)N1CCCCC1c1ccccc1` (centres unmarked) [Example 6, [1-(4-Fluoro-benzenesulfonyl)-piperidin-3-yl]-(2-phenyl-piperidin-1-yl)-methanone]: the Kb stood at 0.756 µM.

`COc1cccc(S(=O)(=O)N2CCCC(C(=O)N3CCCC3c3ccccc3)C2)c1` (centres unmarked) [Example 9, [1-(3-Methoxy-benzenesulfonyl)-piperidin-3-yl]-(2-phenyl-pyrrolidin-1-yl)-methanone]: the Kb amounted to 0.122 µM.

In the case of `O=C(C1CCCN(S(=O)(=O)c2ccccc2)C1)N1CCCCC1c1ccccc1` (centres unmarked) [Example 12, (1-Benzenesulfonyl-piperidin-3-yl)-(2-phenyl-piperidin-1-yl)-methanone], the Kb was 0.309 µM.

Take `O=C(C1CCCN(S(=O)(=O)c2ccc(F)cc2)C1)N1CCCC1c1ccccc1` (centres unmarked) [Example 13, [1-(4-Fluoro-benzenesulfonyl)-piperidin-3-yl]-(2-phenyl-pyrrolidin-1-yl)-methanone]: the Kb came to 0.334 µM.

`O=C(C1CCCN(S(=O)(=O)c2ccccc2)C1)N1CCCC1c1ccccc1` (centres unmarked) [Example 15, (1-Benzenesulfonyl-piperidin-3-yl)-(2-phenyl-pyrrolidin-1-yl)-methanone]: the Kb worked out at 0.258 µM.

As to `O=C(C1CCCN(S(=O)(=O)c2ccccc2Cl)C1)N1CCCC1c1ccc(Cl)c(Cl)c1` (centres unmarked) [Example 18, [1-(2-Chloro-benzenesulfonyl)-piperidin-3-yl]-[2-(3,4-dichloro-phenyl)-pyrrolidin-1-yl]-methanone], the Kb was 0.75 µM.

Consider `O=C(C1CCCN(S(=O)(=O)c2ccccc2Cl)C1)N1CCCC1c1cc(Cl)cc(Cl)c1` (centres unmarked) [Example 19, [1-(2-Chloro-benzenesulfonyl)-piperidin-3-yl]-[2-(3,5-dichloro-phenyl)-pyrrolidin-1-yl]-methanone], for which the Kb was determined as 0.67 µM.
